Series [1] deals with IDH1 WT (Homo sapiens, UniProt O75874). Kind of series: Wild type IDH1 enzyme assay, diaphorase/resazurin coupled. Conditions: for EC50: IDH1 WT EC50, Biochemical; for Emax: read-out: IDH1 WT % EMax. For orientation: Alamar Blue is a resazurin reagent that responds to reducing activity.
Series [2] in a line: Human hepatocyte cytotoxicity (CellTiter-Glo, 72 hr). The note with it: both, human, cryopreserved human hepatocytes.
The subject of series [3] is human hepatocytes. The description is as above. The note with it: Homo sapiens, Hepatocyte, read-out: Human Hepatocytes EC50.
Series [4] can be described thus: High-throughput PAMPA (GIT), pH 7.4. The note with it: read-out: HT PAMPA Permeability. Format: in vitro ADME. An excerpt:
In Vitro Physicochemical and Drug Metabolism Studies:
High-Throughput PAMPA assay
The stirring double- sin k PAMPA method patented by pION Inc. (Billeri ca, MA) was employed to determine the permeability of compounds via PAMPA passive diffusion. The PAMPA lipid membrane consisted of an artificial membrane of a proprietary lipid mixture and dodecane (Pion Inc.), optimized to predict gastrointestinal tract (GIT) passive diffusion permeability, was immobilized on a plastic matrix of a 96 well “donor” filter plate placed above a 96 well “a cceptor” plate. A pH 7.4 solution was used in both donor and acceptor wells. The test articles, stocked in 10 mM DMSO solutions, were diluted to 0.05 mM in aqueous buffer (pH 7.4) , and the concentration of DMSO was 0.5% in the final solution. During the 30-min permeation period at room temperature, the test samples in the donor compartment were stirred using the Gutbox te chnology (Pion Inc.) to reduce the unstirred water layer. The test article concentrations in the donor and acceptor compartments were measured using an UV plate reader (Nano Quant, Infinite 200 […]
PRO, Tecan Inc., Männedorf, Switzerland). Permeability calculations were performed using Pion Inc. software and were expressed in units of 10-6 cm/s. […]
A general note: PAMPA measures passive passage across an artificial lipid membrane.

The nature of series [5]: Microsomal metabolic stability, mouse. Format: in vitro ADME. Conditions: pH 7.4; mouse liver microsomes.
Series [6] is described as follows: Microsomal metabolic stability, human. Conditions: pH 7.4; human liver microsomes. The series is classed as in vitro ADME.
The nature of series [7]: in vitro. Conditions: human, Caco-2.
Series [8] has as its target T1, hERG channel (Homo sapiens, UniProt Q12809).
T1 construct: host or cells: U2OS cells (ATCC)
As to the kind of experiment: hERG FluxOR-based thallium flux assay. The series is classed as cell-based. Conditions: In Vitro Toxicity; for Emax: human, U2OS cells transduced with hERG-BacMam virus. (In general: Block of hERG is tested as a sign of cardiac risk.)

Series [9] in a line: Human plasma protein binding (rapid equilibrium dialysis, Cyprotex). The series is classed as in vitro ADME. Conditions: human, plasma, human plasma.
The target in series [10] is T2, IDH2 WT (Homo sapiens, UniProt P48735).
T2 sequence (P48735 40-452): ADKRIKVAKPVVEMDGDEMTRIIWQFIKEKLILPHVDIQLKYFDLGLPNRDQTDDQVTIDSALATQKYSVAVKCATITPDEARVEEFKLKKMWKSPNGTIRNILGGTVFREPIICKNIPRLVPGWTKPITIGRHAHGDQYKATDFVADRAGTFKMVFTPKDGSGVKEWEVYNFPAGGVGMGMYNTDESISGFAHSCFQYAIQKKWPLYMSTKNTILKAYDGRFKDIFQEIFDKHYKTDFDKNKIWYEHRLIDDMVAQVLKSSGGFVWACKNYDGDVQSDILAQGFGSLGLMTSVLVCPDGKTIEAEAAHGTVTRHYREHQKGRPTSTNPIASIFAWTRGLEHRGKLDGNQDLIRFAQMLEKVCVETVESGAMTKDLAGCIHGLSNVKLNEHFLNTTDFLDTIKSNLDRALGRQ
As to the kind of experiment: Wild type IDH2 enzyme assay, diaphorase/resazurin coupled. Conditions: for Emax: read-out: IDH2 % EMax.

A short description of series [11]: High-throughput kinetic solubility (µSOL), pH 7.4. Format: physicochemical. The note with it: aqueous solution pH 7.4, pH 7.4, aqueous buffer, kinetic from dmso stock; read-out: HT Kinetic Solubility, Solubility. Here is the method:
High-Throughput kinetic solubility test assay
Pion’s patented µSOL assay for kinetic solubility determination was used. In this assay, the classical saturation shake- flask solub ility method was adapted to a 96-well microtiter plate format and a co-solvent method with n- propanol as the […] was utilized. Test compounds were prepared in 10 mM DMSO solutions (45 µ L), and diluted with the co-solve nt to a final drug conce ntration of […]
Samples are incubated at room temperature for 6 hrs t o achieve equilibrium. The samples were then filtered to remove any precipitate formed. The concentrat ion of the compound in the filtrate was measured by UV ab sorbance. […]
used for quantitation of unknown drug concent ration in filtrate. Spectroscopically pure 1- Propanol was used as acosolvent to suppress precipitation in the reference

Series [12] is described as follows: Microsomal metabolic stability, rat. Format: in vitro ADME. Conditions: pH 7.4; rat liver microsomes.
Series [13] concerns the target T3, R172Q mIDH2 (Homo sapiens, UniProt P48735, R172Q).
T3 sequence (P48735 40-452 R172Q): T2 sequence (P48735 40-452) with R133Q
As to the kind of experiment: mIDH2-R172Q enzyme assay (Reaction Biology), diaphorase/resazurin coupled. Conditions: for Emax: read-out: IDH2 R172Q % EMax.

For series [14], the target named is P-glycoprotein (P-gp, MDR1, ABCB1) (Homo sapiens, UniProt P08183). Kind of series: Bidirectional MDCK-MDR1 permeability assay (Cyprotex). The note with it: dog, MDCK-MDR1.
Sequence of P-glycoprotein (P-gp, MDR1, ABCB1) (P08183 whole entry): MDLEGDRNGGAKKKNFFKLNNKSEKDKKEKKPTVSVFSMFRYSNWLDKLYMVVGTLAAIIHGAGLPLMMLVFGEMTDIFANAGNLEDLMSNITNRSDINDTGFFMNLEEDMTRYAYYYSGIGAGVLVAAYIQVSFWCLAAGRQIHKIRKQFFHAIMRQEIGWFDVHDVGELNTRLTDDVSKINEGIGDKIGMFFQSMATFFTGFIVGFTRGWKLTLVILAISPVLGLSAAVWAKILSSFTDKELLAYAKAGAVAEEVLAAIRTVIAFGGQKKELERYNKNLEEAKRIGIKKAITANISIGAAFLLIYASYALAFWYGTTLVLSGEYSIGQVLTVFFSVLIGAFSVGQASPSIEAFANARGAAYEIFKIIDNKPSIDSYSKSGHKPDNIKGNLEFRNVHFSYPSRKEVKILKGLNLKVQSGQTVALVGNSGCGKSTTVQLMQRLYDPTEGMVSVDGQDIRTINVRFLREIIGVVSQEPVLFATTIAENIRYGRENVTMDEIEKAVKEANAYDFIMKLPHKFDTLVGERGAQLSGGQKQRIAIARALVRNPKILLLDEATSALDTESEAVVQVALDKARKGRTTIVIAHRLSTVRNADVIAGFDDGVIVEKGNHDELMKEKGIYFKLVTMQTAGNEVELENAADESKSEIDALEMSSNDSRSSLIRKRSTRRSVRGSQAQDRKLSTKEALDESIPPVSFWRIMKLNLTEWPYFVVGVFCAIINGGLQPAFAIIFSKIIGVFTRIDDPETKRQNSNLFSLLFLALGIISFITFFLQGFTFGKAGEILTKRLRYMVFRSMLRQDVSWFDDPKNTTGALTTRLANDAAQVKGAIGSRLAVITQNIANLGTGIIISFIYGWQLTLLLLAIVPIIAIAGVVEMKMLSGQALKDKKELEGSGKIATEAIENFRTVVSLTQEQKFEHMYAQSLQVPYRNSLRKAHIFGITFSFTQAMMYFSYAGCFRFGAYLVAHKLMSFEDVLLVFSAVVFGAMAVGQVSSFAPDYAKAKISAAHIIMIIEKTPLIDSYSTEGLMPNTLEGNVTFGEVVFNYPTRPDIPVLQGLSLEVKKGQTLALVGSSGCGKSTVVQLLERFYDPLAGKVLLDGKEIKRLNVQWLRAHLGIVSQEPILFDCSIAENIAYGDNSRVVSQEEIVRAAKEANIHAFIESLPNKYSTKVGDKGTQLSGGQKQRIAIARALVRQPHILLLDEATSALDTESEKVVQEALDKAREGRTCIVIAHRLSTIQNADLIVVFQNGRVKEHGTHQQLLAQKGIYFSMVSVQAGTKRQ
Where [15] appears, read: read-out: Human Plasma Protein Binding % Unbound.

Positions count from the first letter of the chain named. ≈ marks a conversion by molar mass, not a printed value. Like-named read-outs stand apart in the source and are kept apart here.

Consider 3 compounds from publication PMC5630632, “Assessing inhibitors of mutant isocitrate dehydrogenase using a suite of pre-clinical discovery assays” (Scientific Reports, 2017).

Sequence of IDH1 WT (O75874 whole entry): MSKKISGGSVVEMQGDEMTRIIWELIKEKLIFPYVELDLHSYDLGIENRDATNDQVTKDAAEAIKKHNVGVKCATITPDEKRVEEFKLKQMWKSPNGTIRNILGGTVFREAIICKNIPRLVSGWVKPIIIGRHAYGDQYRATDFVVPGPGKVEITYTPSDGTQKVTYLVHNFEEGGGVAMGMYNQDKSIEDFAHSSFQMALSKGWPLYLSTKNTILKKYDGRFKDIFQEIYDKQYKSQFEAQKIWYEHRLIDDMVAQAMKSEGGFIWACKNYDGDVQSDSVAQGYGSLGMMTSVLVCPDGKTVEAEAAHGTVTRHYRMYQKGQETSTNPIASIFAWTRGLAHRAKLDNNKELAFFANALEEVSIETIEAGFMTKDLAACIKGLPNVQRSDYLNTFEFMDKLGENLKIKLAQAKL
T1 sequence (Q12809 whole entry): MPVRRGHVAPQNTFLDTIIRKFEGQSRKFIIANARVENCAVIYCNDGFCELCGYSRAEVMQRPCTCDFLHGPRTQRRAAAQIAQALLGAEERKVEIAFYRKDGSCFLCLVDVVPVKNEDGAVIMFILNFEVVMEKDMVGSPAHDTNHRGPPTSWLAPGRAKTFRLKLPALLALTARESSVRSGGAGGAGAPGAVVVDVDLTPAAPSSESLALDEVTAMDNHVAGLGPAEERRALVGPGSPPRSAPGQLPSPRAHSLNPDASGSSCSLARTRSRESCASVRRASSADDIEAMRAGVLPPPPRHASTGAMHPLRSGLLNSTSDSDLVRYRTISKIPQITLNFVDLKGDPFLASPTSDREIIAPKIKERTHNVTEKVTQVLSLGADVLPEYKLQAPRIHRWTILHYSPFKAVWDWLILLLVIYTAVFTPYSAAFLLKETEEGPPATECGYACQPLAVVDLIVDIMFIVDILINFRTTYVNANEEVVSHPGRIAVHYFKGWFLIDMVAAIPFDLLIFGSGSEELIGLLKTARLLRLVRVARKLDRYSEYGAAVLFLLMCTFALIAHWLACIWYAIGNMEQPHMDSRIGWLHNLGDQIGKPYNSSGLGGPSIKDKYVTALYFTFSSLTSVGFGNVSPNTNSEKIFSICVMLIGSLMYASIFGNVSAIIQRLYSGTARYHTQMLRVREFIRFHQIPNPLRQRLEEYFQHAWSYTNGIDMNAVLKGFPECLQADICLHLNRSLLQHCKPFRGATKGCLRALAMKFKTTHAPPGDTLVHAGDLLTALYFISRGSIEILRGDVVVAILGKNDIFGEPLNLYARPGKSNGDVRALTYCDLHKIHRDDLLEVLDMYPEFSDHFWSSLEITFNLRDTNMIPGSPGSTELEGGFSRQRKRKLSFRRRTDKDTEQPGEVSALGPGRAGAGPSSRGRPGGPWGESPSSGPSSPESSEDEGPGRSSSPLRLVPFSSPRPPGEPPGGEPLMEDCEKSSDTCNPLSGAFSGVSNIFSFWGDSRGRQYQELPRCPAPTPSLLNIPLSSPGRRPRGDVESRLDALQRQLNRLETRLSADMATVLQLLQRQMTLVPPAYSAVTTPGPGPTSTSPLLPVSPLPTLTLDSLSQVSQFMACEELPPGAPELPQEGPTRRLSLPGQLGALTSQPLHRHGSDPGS

A word on the EC50: it is the midpoint of the concentration-response curve. For orientation: Emax means the greatest response seen or fitted, relative to the assay's reference. As usually defined, the half-life is the time needed for the level to fall by half in the phase considered. For orientation: Papp A→B means the apparent permeability from the apical to the basolateral side of a cell layer. The Papp B→A is how fast a substance crosses the layer from the basolateral side. What is called solubility (kinetic) is solubility judged after dilution from a stock solution rather than from solid. As for `O=C(Nc1cccc(C(F)(F)F)c1)Nc1cc(S(=O)(=O)NC2CC2)ccc1-c1ccsc1` [AGI-6780], the EC50 in series [1] was greater than 30 µM; in series [3], 21.9 µM; in [8], 25.1 µM. Further, the Emax in [1] is 8.1%; in [8], 99.8%; in series [10], 85.2%; in series [13] it was 74.4%. Further, the Emax at 72 h in [2] came to 108%. Further, in series [4], the Papp at 30 min, 0.05 mM is 523 ×10⁻⁶ cm/s. Besides, the half-life at 1 µM in [5] was determined as 4.6 min; in [6] it was 3.1 min; in series [12], 4.5 min. Moreover, in series [7], the Papp A→B at 2 h, 10 µM was 0.85 ×10⁻⁶ cm/s. For the same compound, the Papp B→A at 2 h, 10 µM in series [7] amounted to 12.5 ×10⁻⁶ cm/s. Besides, the fraction unbound at 4 h, 5 µM in [9] (read-out: Human Plasma Protein Binding % Bound (converted)) is 0.001; in series [9] (setting [15]) it was 0.00083. Besides, in series [11], the kinetic solubility at 6 h amounted to 0.374 µM (≈ 0.18 µg/mL).
The term IC50 denotes the concentration that gives 50% inhibition. Lower therefore signals greater potency. Regarding `CC(C)Nc1nc(Nc2ccccc2)nc(-c2ccccc2)n1` [IDH2-C100], the EC50 is greater than 30 µM in series [1]; greater than 30 µM in series [3]; greater than 30 µM in [8]; 6.59 µM in series [10]; 0.343 µM in [13]. Also, the Emax turned out to be 11.8% in series [1], 7.2% in series [8], 84.7% in [10] and 72.2% in [13]. In [2], this compound had an Emax at 72 h of 31.5%. Also, the Papp at 30 min, 0.05 mM in series [4] amounted to 482 ×10⁻⁶ cm/s. Moreover, the results for the half-life at 1 µM in series [5], in [6] and in series [12] were 13.5 min, 20.6 min and 26.7 min, respectively. In series [7], this compound came in with a Papp A→B at 2 h, 10 µM of 0.57 ×10⁻⁶ cm/s. Also, the Papp B→A at 2 h, 10 µM in series [7] was 2.34 ×10⁻⁶ cm/s. Further, in series [9] (setting [15]), the fraction unbound at 4 h, 5 µM amounted to 0.00011. Also, the kinetic solubility at 6 h in series [11] was 0.458 µM (≈ 0.14 µg/mL). This compound also showed an IC50 in [13] of roughly 1 µM.
By efflux ratio is commonly meant the permeability from basolateral to apical divided by that in the opposite direction, in the common usage. Turning to `CN(C)C(=O)C(CCN1CCC(O)(c2ccc(Cl)cc2)CC1)(c1ccccc1)c1ccccc1` [loperamide], the efflux ratio at 2 h, 10 µM in series [14] was roughly 350.
